Data on 14 compounds can be found in ChEMBL document CHEMBL1153779, “Tyrosinase-inhibitory constituents from the twigs of Cinnamomum cassia” (J Nat Prod, 2009).

In this assay the target is T1, Tyrosinase (Agaricus bisporus, UniProt O42713).
T1 sequence (O42713 whole entry): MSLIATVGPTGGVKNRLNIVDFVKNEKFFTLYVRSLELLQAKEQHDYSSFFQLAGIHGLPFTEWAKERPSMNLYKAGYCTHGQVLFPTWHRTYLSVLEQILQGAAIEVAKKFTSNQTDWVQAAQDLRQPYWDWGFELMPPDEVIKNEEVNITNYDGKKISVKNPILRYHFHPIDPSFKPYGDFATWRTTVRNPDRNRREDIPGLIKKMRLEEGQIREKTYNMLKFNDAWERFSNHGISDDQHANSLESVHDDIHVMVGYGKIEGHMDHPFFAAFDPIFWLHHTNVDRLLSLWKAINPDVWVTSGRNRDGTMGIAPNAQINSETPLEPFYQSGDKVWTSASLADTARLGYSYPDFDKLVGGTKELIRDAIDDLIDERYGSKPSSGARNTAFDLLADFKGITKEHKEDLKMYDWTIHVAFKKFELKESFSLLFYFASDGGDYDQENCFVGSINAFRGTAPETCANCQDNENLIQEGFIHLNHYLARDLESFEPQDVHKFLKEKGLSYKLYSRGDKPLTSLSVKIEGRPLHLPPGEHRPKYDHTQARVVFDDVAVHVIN
Description: Inhibition of mushroom tyrosinase after 10 mins by spectrophotometry
A word on the IC50: it is the concentration that inhibits the measured activity by half. `COc1ccccc1/C=C/C=O` yielded an IC50 of 420 µM.
For `COc1c(O)cccc1/C=C/C=O`, the IC50 was found to be 260 µM.
As for `COc1cc(/C=C/C=O)ccc1O` [CONIFERYL ALDEHYDE], the IC50 was determined as 240 µM.
Compound `COC(=O)CCc1ccccc1O[C@@H]1O[C@H](CO)[C@@H](O)[C@H](O)[C@H]1O` [METHYL DIHYDROMELILOTOSIDE] displayed an IC50 of 630 µM.
With `O[C@@H]1[C@@H](O)[C@@H](OC/C=C/c2ccccc2)O[C@H](CO[C@@H]2OC[C@H](O)[C@H](O)[C@H]2O)[C@H]1O` [ROSAVIN] the figure was more than 10000 µM; with `OC/C=C/c1ccccc1` [CINNAMIC ALCOHOL], more than 10000 µM.
With `O=C/C=C/c1ccccc1O` [2-HYDROXYCINNAMALDEHYDE] the figure was 470 µM; with `O=C/C=C/c1ccccc1`, 520 µM; with `C[C@@H]1O[C@@H](OC[C@H]2O[C@@H](Oc3ccccc3/C=C/CO)[C@H](O[C@@H]3[C@@H](OCc4ccccc4)O[C@@H](CO[C@@H]4OC[C@](O)(CO)[C@H]4O)[C@H](O)[C@H]3O)[C@@H](O)[C@@H]2O)[C@H](O)[C@H](O)[C@H]1O` [CINNACASSINOL], 940 µM.
The compound `O=C(O)/C=C/c1ccccc1O` [O-COUMARIC ACID] had an IC50 of 670 µM. This IC50 and that of the compound before are within 1.5-fold of each other.
The compound `O=C(O)CCc1ccccc1O[C@@H]1O[C@H](CO)[C@@H](O)[C@H](O)[C@H]1O` [DIHYDROMELILOTOSIDE] had an IC50 of 570 µM.
Compound `O=C(CCc1ccccc1O)O[C@@H]1O[C@H](CO)[C@@H](O)[C@H](O)[C@H]1O` [DIHYDROCINNACASSIDE] returned an IC50 of 670 µM.
Then `OC[C@H]1O[C@@H](OCCc2ccccc2)[C@H](O)[C@@H](O)[C@@H]1O[C@@H]1OC[C@](O)(CO)[C@H]1O`, with 710 µM; and `Oc1ccc(O)cc1` [HYDROQUINONE], with 4210 µM.
